Structures can show the parent of a compound that is named as a salt.
Tested on: healthy adult subjects
Experiment: Example 11 ECG (QT/QTc) crossover study
Protocol: This was a single-dose, partially blinded, randomized, four-period, four-treatment, crossover study in which 24 healthy adult subjects received separate single doses of cocaine topical solution (8%), cocaine topical solution (4%), placebo, and moxifloxacin HCl tablet (400 mg) in four study periods. Each subject received a different treatment in each study period. Subjects received each of the following treatments in randomized fashion during the four treatment periods: (1) Treatment A: Cocaine hydrochloride, USP, topical solution, 8%; Dose=320 mg (80 mg/mL×4 mL); (2) Treatment B: Cocaine hydrochloride, USP, topical solution, 4%; Dose=160 mg (40 mg/mL×4 mL); (3) Treatment C: Placebo; and (4) Treatment D: AVELOX® (moxifloxacin hydrochloride); Dose=400 mg (1×400 mg tablet).
Treatments A, B, and C were blinded, while Treatment D was open label. Each drug administration was separated by a washout period of at least 4 days. […] Moxifloxacin HCl was orally administered along with approximately 240 mL (8 fl oz) of room temperature water.
A 25-hour continuous 12-lead ECG recording was performed on Day 1, starting 1 hour before dosing. At the designated time points, up to 10 replicate ECGs were extracted and intervals were measured using the High Precision QT technique. […] During protocol-specified ECG extraction windows, 10-second digital 12-lead ECG tracings were extracted from continuous recordings (preceded by a 10-minute supine rest period) at the following time points: predose (3 time points) and 20 minutes (end of cocaine dose; immediately after pledget removal), 40 minutes, and at 1, 1.25, 1.5, 2, 2.5, 3, 4, 6, 8, 12, and 24 hours after pledget insertion/moxifloxacin dosing.
The primary ECG endpoint was ΔQTcF. ΔQTcF is the QTc corrected for heart rate by the Fridericia method. The term “QTc”, as used herein, refers to the duration of the QT interval adjusted for the patient's heart rate.
The secondary ECG endpoints were: change-from-baseline heart rate (“HR”), time from beginning of the P-wave to the beginning of the next QRS complex (“PR”), deflections in the tracing of the electrocardiogram comprising the Q, R, and S waves that represent depolarization of the ventricles (“QRS”), time elapsed between two consecutive R waves (“RR”), and measure of the time in the tracing of the electrocardiogram between the start of the Q-wave and the end of the T-wave (“QT”); and T-wave morphological changes.

[1] = 400 mg, 20 min post-dose, QT/QTc Population
[2] = 400 mg, 40 min post-dose, QT/QTc Population
[3] = 400 mg, 1 hour post-dose, QT/QTc Population
[4] = 400 mg, 1.25 hour post-dose, QT/QTc Population
[5] = 400 mg, 1.5 hour post-dose, QT/QTc Population
[6] = 400 mg, 2 hours post-dose, QT/QTc Population
[7] = 400 mg, 3 hours post-dose, QT/QTc Population
[8] = 400 mg, 4 hours post-dose, QT/QTc Population
[9] = 400 mg, 6 hours post-dose, QT/QTc Population
[10] = 400 mg, 8 hours post-dose, QT/QTc Population
[11] = 400 mg, 12 hours post-dose, QT/QTc Population
[12] = 400 mg, 24 hours post-dose, QT/QTc Population
[13] = 400 mg, […] post-dose, QT/QTc Population
[14] = 20 min post-dose, QT/QTc Population
[15] = 40 min post-dose, QT/QTc Population
[16] = 1 hour post-dose, QT/QTc Population
[17] = 1.25 hour post-dose, QT/QTc Population
[18] = 1.5 hour post-dose, QT/QTc Population
[19] = 2 hours post-dose, QT/QTc Population
[20] = 3 hours post-dose, QT/QTc Population
[21] = 4 hours post-dose, QT/QTc Population
[22] = 6 hours post-dose, QT/QTc Population
[23] = 8 hours post-dose, QT/QTc Population
[24] = 12 hours post-dose, QT/QTc Population
[25] = 24 hours post-dose, QT/QTc Population
[26] = […] post-dose, QT/QTc Population

COc1c(N2C[C@@H]3CCCN[C@@H]3C2)c(F)cc2c(=O)c(C(=O)O)cn(C3CC3)c12 [moxifloxacin HCl, moxifloxacin hydrochloride]
peak ΔQTcF (400 mg oral, 4 hours post-dosing): 14.4 ms
peak ΔΔQTcF (400 mg oral, 4 h post-dose): 15.2 ms
ΔPR, change-from-baseline PR, LSMean [1]: 1.1 ms
ΔQRS, change-from-baseline QRS, LSMean [1]: -0.5 ms
ΔQT, change-from-baseline QT, LSMean [1]: -5.3 ms
ΔRR, change-from-baseline RR, LSMean [1]: -18.8 ms
ΔΔPR, placebo-corrected change-from-baseline PR, LSMean [1]: 2.1 ms
ΔPR, change-from-baseline PR, LSMean [2]: 1.4 ms
ΔQRS, change-from-baseline QRS, LSMean [2]: -0.5 ms
ΔQT, change-from-baseline QT, LSMean [2]: 2.2 ms
ΔRR, change-from-baseline RR, LSMean [2]: -15.8 ms
ΔΔPR, placebo-corrected change-from-baseline PR, LSMean [2]: 0.1 ms
ΔPR, change-from-baseline PR, LSMean [3]: 0.8 ms
ΔQRS, change-from-baseline QRS, LSMean [3]: -0.4 ms
ΔQT, change-from-baseline QT, LSMean [3]: 3.9 ms
ΔRR, change-from-baseline RR, LSMean [3]: -24.5 ms
ΔΔPR, placebo-corrected change-from-baseline PR, LSMean [3]: 0.1 ms
ΔPR, change-from-baseline PR, LSMean [4]: 0.5 ms
ΔQRS, change-from-baseline QRS, LSMean [4]: 0.2 ms
ΔQT, change-from-baseline QT, LSMean [4]: 3.9 ms
ΔRR, change-from-baseline RR, LSMean [4]: -35.1 ms
ΔΔPR, placebo-corrected change-from-baseline PR, LSMean [4]: -0.2 ms
ΔPR, change-from-baseline PR, LSMean [5]: -0.7 ms
ΔQRS, change-from-baseline QRS, LSMean [5]: 0.0 ms
ΔQT, change-from-baseline QT, LSMean [5]: 0.8 ms
ΔRR, change-from-baseline RR, LSMean [5]: -58.5 ms
ΔΔPR, placebo-corrected change-from-baseline PR, LSMean [5]: -1.9 ms
ΔPR, change-from-baseline PR, LSMean [6]: 0.2 ms
ΔQRS, change-from-baseline QRS, LSMean [6]: 0.0 ms
ΔQT, change-from-baseline QT, LSMean [6]: 4.2 ms
ΔRR, change-from-baseline RR, LSMean [6]: -33.8 ms
ΔΔPR, placebo-corrected change-from-baseline PR, LSMean [6]: 0.2 ms
ΔPR, change-from-baseline PR, LSMean [7]: -2.1 ms
ΔQRS, change-from-baseline QRS, LSMean [7]: 0.0 ms
ΔQT, change-from-baseline QT, LSMean [7]: 7.5 ms
ΔRR, change-from-baseline RR, LSMean [7]: -41.1 ms
ΔΔPR, placebo-corrected change-from-baseline PR, LSMean [7]: -2.1 ms
ΔPR, change-from-baseline PR, LSMean [8]: -1.5 ms
ΔQRS, change-from-baseline QRS, LSMean [8]: -0.0 ms
ΔQT, change-from-baseline QT, LSMean [8]: 6.7 ms
ΔRR, change-from-baseline RR, LSMean [8]: -121.3 ms
ΔΔPR, placebo-corrected change-from-baseline PR, LSMean [8]: -1.4 ms
ΔPR, change-from-baseline PR, LSMean [9]: -4.2 ms
ΔQRS, change-from-baseline QRS, LSMean [9]: -0.5 ms
ΔQT, change-from-baseline QT, LSMean [9]: -9.5 ms
ΔRR, change-from-baseline RR, LSMean [9]: -121.3 ms
ΔΔPR, placebo-corrected change-from-baseline PR, LSMean [9]: -2.6 ms
ΔPR, change-from-baseline PR, LSMean [10]: -5.2 ms
ΔQRS, change-from-baseline QRS, LSMean [10]: -0.5 ms
ΔQT, change-from-baseline QT, LSMean [10]: -7.6 ms
ΔRR, change-from-baseline RR, LSMean [10]: -88.8 ms
ΔΔPR, placebo-corrected change-from-baseline PR, LSMean [10]: -1.4 ms
ΔPR, change-from-baseline PR, LSMean [11]: -4.7 ms
ΔQRS, change-from-baseline QRS, LSMean [11]: -0.0 ms
ΔQT, change-from-baseline QT, LSMean [11]: -14.0 ms
ΔRR, change-from-baseline RR, LSMean [11]: -151.8 ms
ΔΔPR, placebo-corrected change-from-baseline PR, LSMean [11]: -3.9 ms
ΔPR, change-from-baseline PR, LSMean [12]: -0.9 ms
ΔQRS, change-from-baseline QRS, LSMean [12]: 0.1 ms
ΔQT, change-from-baseline QT, LSMean [12]: -6.6 ms
ΔRR, change-from-baseline RR, LSMean [12]: -65.8 ms
ΔΔPR, placebo-corrected change-from-baseline PR, LSMean [12]: 1.7 ms
T-wave morphology treatment emergent changes: Biphasic, Subject count (400 mg, QT/QTc Population): 0
T-wave morphology treatment emergent changes: Biphasic, Timepoint count (400 mg, QT/QTc Population): 0
T-wave morphology treatment emergent changes: Flat, Subject count (400 mg, QT/QTc Population): 0
T-wave morphology treatment emergent changes: Flat, Timepoint count (400 mg, QT/QTc Population): 0
T-wave morphology treatment emergent changes: Normal (−), Subject count (400 mg, QT/QTc Population): 0
T-wave morphology treatment emergent changes: Normal (−), Timepoint count (400 mg, QT/QTc Population): 0
T-wave morphology treatment emergent changes: Notched (+), Subject count (400 mg, QT/QTc Population): 0
T-wave morphology treatment emergent changes: Notched (+), Timepoint count (400 mg, QT/QTc Population): 0
T-wave morphology treatment emergent changes: Notched (−), Subject count (400 mg, QT/QTc Population): 0
T-wave morphology treatment emergent changes: Notched (−), Timepoint count (400 mg, QT/QTc Population): 0
ΔPR, change-from-baseline PR, LSMean [13]: -0.8 ms
ΔQRS, change-from-baseline QRS, LSMean [13]: -0.3 ms
ΔQT, change-from-baseline QT, LSMean [13]: 6.1 ms
ΔRR, change-from-baseline RR, LSMean [13]: -37.0 ms
ΔΔPR, placebo-corrected change-from-baseline PR, LSMean [13]: 0.5 ms
ΔHR (change-from-baseline HR), LSMean [14]: 1.0 bpm
ΔQTcF (change-from-baseline QTcF), LSMean [14]: -3.1 ms
ΔΔHR (placebo-corrected change-from-baseline HR), LSMean [14]: −4.4 bpm
ΔΔQTcF (placebo-corrected change-from-baseline QTcF), LSMean [14]: -0.1 ms
ΔHR (change-from-baseline HR), LSMean [15]: 1.3 bpm
ΔQTcF (change-from-baseline QTcF), LSMean [15]: 4.4 ms
ΔΔHR (placebo-corrected change-from-baseline HR), LSMean [15]: 0.4 bpm
ΔΔQTcF (placebo-corrected change-from-baseline QTcF), LSMean [15]: 5.4 ms
ΔHR (change-from-baseline HR), LSMean [16]: 1.8 bpm
ΔQTcF (change-from-baseline QTcF), LSMean [16]: 7.4 ms
ΔΔHR (placebo-corrected change-from-baseline HR), LSMean [16]: 1.7 bpm
ΔΔQTcF (placebo-corrected change-from-baseline QTcF), LSMean [16]: 7.8 ms
ΔHR (change-from-baseline HR), LSMean [17]: 2.6 bpm
ΔQTcF (change-from-baseline QTcF), LSMean [17]: 9.1 ms
ΔΔHR (placebo-corrected change-from-baseline HR), LSMean [17]: 2.7 bpm
ΔΔQTcF (placebo-corrected change-from-baseline QTcF), LSMean [17]: 8.7 ms
ΔHR (change-from-baseline HR), LSMean [18]: 3.9 bpm
ΔQTcF (change-from-baseline QTcF), LSMean [18]: 8.4 ms
ΔΔHR (placebo-corrected change-from-baseline HR), LSMean [18]: 3.8 bpm
ΔΔQTcF (placebo-corrected change-from-baseline QTcF), LSMean [18]: 7.9 ms
ΔHR (change-from-baseline HR), LSMean [19]: 2.3 bpm
ΔQTcF (change-from-baseline QTcF), LSMean [19]: 9.0 ms
ΔΔHR (placebo-corrected change-from-baseline HR), LSMean [19]: 3.1 bpm
ΔΔQTcF (placebo-corrected change-from-baseline QTcF), LSMean [19]: 8.9 ms
ΔHR (change-from-baseline HR), LSMean [20]: 2.6 bpm
ΔQTcF (change-from-baseline QTcF), LSMean [20]: 13.2 ms
ΔΔHR (placebo-corrected change-from-baseline HR), LSMean [20]: 2.5 bpm
ΔΔQTcF (placebo-corrected change-from-baseline QTcF), LSMean [20]: 13.0 ms
ΔHR (change-from-baseline HR), LSMean [21]: 3.4 bpm
ΔQTcF (change-from-baseline QTcF), LSMean [21]: 14.4 ms
ΔΔHR (placebo-corrected change-from-baseline HR), LSMean [21]: 1.6 bpm
ΔΔQTcF (placebo-corrected change-from-baseline QTcF), LSMean [21]: 15.2 ms
ΔHR (change-from-baseline HR), LSMean [22]: 8.2 bpm
ΔQTcF (change-from-baseline QTcF), LSMean [22]: 7.2 ms
ΔΔHR (placebo-corrected change-from-baseline HR), LSMean [22]: 2.5 bpm
ΔΔQTcF (placebo-corrected change-from-baseline QTcF), LSMean [22]: 10.9 ms
ΔHR (change-from-baseline HR), LSMean [23]: 5.7 bpm
ΔQTcF (change-from-baseline QTcF), LSMean [23]: 4.4 ms
ΔΔHR (placebo-corrected change-from-baseline HR), LSMean [23]: 1.6 bpm
ΔΔQTcF (placebo-corrected change-from-baseline QTcF), LSMean [23]: 11.5 ms
ΔHR (change-from-baseline HR), LSMean [24]: 10.7 bpm
ΔQTcF (change-from-baseline QTcF), LSMean [24]: 7.3 ms
ΔΔHR (placebo-corrected change-from-baseline HR), LSMean [24]: 1.5 bpm
ΔΔQTcF (placebo-corrected change-from-baseline QTcF), LSMean [24]: 9.6 ms
ΔHR (change-from-baseline HR), LSMean [25]: 4.2 bpm
ΔQTcF (change-from-baseline QTcF), LSMean [25]: 2.4 ms
ΔΔHR (placebo-corrected change-from-baseline HR), LSMean [25]: −0.0 bpm
ΔΔQTcF (placebo-corrected change-from-baseline QTcF), LSMean [25]: 7.5 ms
ΔHR (change-from-baseline HR), LSMean [26]: 2.6 bpm
ΔQTcF (change-from-baseline QTcF), LSMean [26]: 11.5 ms
ΔΔHR (placebo-corrected change-from-baseline HR), LSMean [26]: 0.9 bpm
ΔΔQTcF (placebo-corrected change-from-baseline QTcF), LSMean [26]: 9.8 ms

Source: patent US10413505B1, “Pharmaceutical compositions and methods of using the same” (priority 2017, dated 2019)
